Target: T1, Interleukin-1 receptor-associated kinase 4 (Homo sapiens, UniProt Q9NWZ3)
T1 sequence (Q9NWZ3 whole entry): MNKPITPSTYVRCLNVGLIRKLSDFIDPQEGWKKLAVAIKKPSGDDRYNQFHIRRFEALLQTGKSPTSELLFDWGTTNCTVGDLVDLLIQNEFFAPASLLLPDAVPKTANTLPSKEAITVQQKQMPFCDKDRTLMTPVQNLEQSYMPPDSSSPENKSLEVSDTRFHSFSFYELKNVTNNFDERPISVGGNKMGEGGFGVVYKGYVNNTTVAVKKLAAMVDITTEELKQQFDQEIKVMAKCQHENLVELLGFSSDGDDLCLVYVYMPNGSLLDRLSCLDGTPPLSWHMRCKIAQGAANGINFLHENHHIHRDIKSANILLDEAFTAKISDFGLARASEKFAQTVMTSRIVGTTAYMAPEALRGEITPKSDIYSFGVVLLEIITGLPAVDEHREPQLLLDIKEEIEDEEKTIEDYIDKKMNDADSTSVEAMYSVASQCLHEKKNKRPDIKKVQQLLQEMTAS
Assay: IRAK4 Biochemical Assay: IRAK4 enzyme (Carna Biosciences, Chuo-ku, Kobe, Japan) activity was measured by detecting phosphorylated peptide substrate formation using an antibody against the phosphorylated peptide substrate. This is a time-resolved fluorescence resonance energy transfer (TR-FRET) immunoassay, based on the STK1 KinEASE Assay (Cisbio, Bedford, Mass.). The assay was designed as a simple two-step, endpoint assay (a 5 μl enzyme reaction followed by 5 μl stop and detect Solution) performed in ProxiPlate-384 Plus plates (Perkin Elmer, Waltham, Mass.). Staurosporine, a non-selective kinase inhibitor was used as a positive control. Compounds diluted in DMSO were spotted into 384 well plates using a Labcyte® Echo 550 Liquid Handling System prior to addition of IRAK4 enzyme and peptide substrate. Reaction solutions were delivered using a Multi-Flo (Bio-Tek Instruments). The enzyme and peptide solution was incubated with compound for 15 minutes at room temp before the reaction was initiated by the addition of ATP. The standard 5 μl reaction mixture contained 500 μM ATP, […] (STK1 Peptide), 0.75 nM of IRAK4 in reaction buffer (50 mM HEPES, pH 7.0, 0.02% NaN3, 0.01% BSA, 0.1 mM Orthovanadate, 5 mM […], 0.025% NP-40, 1 mM DTT). […]

CC(C)Nc1cc(-c2ccc3cc(C#N)cnn23)ncc1-c1nnc(N2CCCC2)s1
IC50: 1.8 nM
